Results: PubChem BioAssay (NCI)
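Test compounds were applied to cells in 96-well plates for 48 hours at 5 doses. GI50 is the concentration that inhibits growth by half. Definition used: TGI = concentration required for complete inhibition of growth.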

Experiments:
Test in all cases: NCI tumour cell line growth inhibition, 48 h
[1] = system: XF 498 CNS
[2] = system: SK-MEL-28 melanoma
[3] = system: COLO 205 colon
[4] = system: SNB-78 CNS
[5] = system: CCRF-CEM leukemia
[6] = system: HL-60(TB) leukemia
[7] = system: NCI-H23 lung
[8] = system: RPMI-8226 leukemia
[9] = system: SNB-19 CNS
[10] = system: DMS 273 small cell lung
[11] = system: OVCAR-4 ovarian
[12] = system: SNB-75 CNS
[13] = system: KM20L2 colon
[14] = system: A549 NSCLC
[15] = system: OVCAR-5 ovarian
[16] = system: SW-620 colon
[17] = system: NCI-H460 lung
[18] = system: HOP-92 NSCLC
[19] = system: M14 melanoma
[20] = system: UACC-257 melanoma
[21] = system: SK-MEL-5 melanoma
[22] = system: U251 CNS
[23] = system: ACHN renal
[24] = system: EKVX NSCLC
[25] = system: MOLT-4 leukemia
[26] = system: IGROV1 ovarian
[27] = system: CAKI-1 renal
[28] = system: SF-295 CNS
[29] = system: NCI-H226 lung
[30] = system: HCC-2998 colon
[31] = system: SN12C renal
[32] = system: UO-31 renal
[33] = system: LOX IMVI melanoma
[34] = system: M19-MEL melanoma
[35] = system: A498 renal
[36] = system: OVCAR-8 ovarian
[37] = system: NCI-H522 lung
[38] = system: SF-268 CNS
[39] = system: OVCAR-3 ovarian
[40] = system: RXF-631 renal
[41] = system: SK-MEL-2 melanoma
[42] = system: KM12 colon
[43] = system: DMS 114 small cell lung
[44] = system: SK-OV-3 ovarian
[45] = system: K-562 leukemia
[46] = system: SF-539 CNS
[47] = system: LXFL 529 NSCLC
[48] = system: RXF 393 renal
[49] = system: MALME-3M melanoma
[50] = system: HOP-62 NSCLC
[51] = system: HT29 colon
[52] = system: DLD-1 colon
[53] = system: TK-10 renal
[54] = system: 786-0 renal
[55] = system: HCT-116 colon
[56] = system: UACC-62 melanoma
[57] = system: SR leukemia
[58] = system: HCT-15 colon
[59] = system: HOP-18 NSCLC

CC1=C(C(=O)Nc2ccc([N+](=O)[O-])cc2)C(c2ccccc2O)C(C(=O)Nc2ccc([N+](=O)[O-])cc2)=C(C)N1
TGI [1]: 31.2 µM
TGI [2]: 61.5 µM
TGI [3]: 40.8 µM
TGI [4]: 91.8 µM
TGI [5]: 61.7 µM
TGI [6]: 48.2 µM
TGI [7]: 66.7 µM
TGI [8]: 53.4 µM
TGI [9]: > 100 µM
TGI [10]: 47.1 µM
TGI [11]: 73.8 µM
TGI [12]: 89 µM
TGI [13]: 35.8 µM
TGI [14]: 90.4 µM
TGI [15]: 55.8 µM
TGI [16]: 94.1 µM
TGI [17]: 56.4 µM
TGI [18]: 40.1 µM
TGI [19]: 45.1 µM
TGI [20]: 51.1 µM
TGI [21]: 31.8 µM
TGI [22]: 61.1 µM
TGI [23]: 58 µM
TGI [24]: 84.9 µM
TGI [25]: 52.8 µM
TGI [26]: > 100 µM
TGI [27]: 62.1 µM
TGI [28]: 72.2 µM
TGI [29]: 46.9 µM
TGI [30]: 27.2 µM
TGI [31]: 55.5 µM
TGI [32]: 67.8 µM
TGI [33]: 34.5 µM
TGI [34]: 64.4 µM
TGI [35]: 66.4 µM
TGI [36]: > 100 µM
TGI [37]: 35.9 µM
TGI [38]: 49 µM
TGI [39]: 51.4 µM
TGI [40]: 36.6 µM
TGI [41]: 31.8 µM
TGI [42]: 55 µM
TGI [43]: 44.8 µM
TGI [44]: 94.7 µM
TGI [45]: 74.2 µM
TGI [46]: 57.8 µM
TGI [47]: 48.7 µM
TGI [48]: 45.9 µM
TGI [49]: 49.4 µM
TGI [50]: 31.9 µM
TGI [51]: 57.8 µM
TGI [52]: 57.8 µM
TGI [53]: > 100 µM
TGI [54]: 64.8 µM

CC(C)(c1ccc(Oc2ccc(C#N)c(C#N)c2)cc1)c1ccc(Oc2ccc(C#N)c(C#N)c2)cc1
GI50 [2]: > 100 µM
TGI [2]: > 100 µM
GI50 [3]: > 100 µM
TGI [3]: > 100 µM
GI50 [5]: > 100 µM
TGI [5]: > 100 µM
GI50 [6]: > 100 µM
TGI [6]: > 100 µM
GI50 [7]: > 100 µM
TGI [7]: > 100 µM
GI50 [8]: > 100 µM
TGI [8]: > 100 µM
GI50 [9]: > 100 µM
TGI [9]: > 100 µM
GI50 [55]: > 100 µM
TGI [55]: > 100 µM
GI50 [11]: > 100 µM
TGI [11]: > 100 µM
TGI [12]: 89.2 µM
GI50 [13]: > 100 µM
TGI [13]: > 100 µM
GI50 [14]: > 100 µM
TGI [14]: > 100 µM
GI50 [15]: > 100 µM
TGI [15]: > 100 µM
TGI [16]: > 100 µM
GI50 [17]: > 100 µM
TGI [17]: > 100 µM
GI50 [18]: > 100 µM
TGI [18]: > 100 µM
GI50 [19]: > 100 µM
TGI [19]: > 100 µM
GI50 [21]: > 100 µM
TGI [21]: > 100 µM
GI50 [22]: > 100 µM
TGI [22]: > 100 µM
GI50 [23]: > 100 µM
TGI [23]: > 100 µM
GI50 [24]: > 100 µM
TGI [24]: > 100 µM
GI50 [25]: > 100 µM
TGI [25]: > 100 µM
GI50 [26]: > 100 µM
TGI [26]: > 100 µM
GI50 [27]: > 100 µM
TGI [27]: > 100 µM
GI50 [28]: > 100 µM
TGI [28]: > 100 µM
GI50 [30]: > 100 µM
TGI [30]: > 100 µM
GI50 [31]: > 100 µM
TGI [31]: > 100 µM
TGI [32]: > 100 µM
GI50 [33]: > 100 µM
TGI [33]: > 100 µM
GI50 [34]: > 100 µM
TGI [34]: > 100 µM
GI50 [35]: > 100 µM
TGI [35]: > 100 µM
GI50 [36]: > 100 µM
TGI [36]: > 100 µM
GI50 [37]: > 100 µM
TGI [37]: > 100 µM
GI50 [38]: > 100 µM
TGI [38]: > 100 µM
GI50 [39]: > 100 µM
TGI [39]: > 100 µM
GI50 [40]: > 100 µM
TGI [40]: > 100 µM
GI50 [41]: > 100 µM
TGI [41]: > 100 µM
GI50 [42]: > 100 µM
TGI [42]: > 100 µM
GI50 [43]: > 100 µM
TGI [43]: > 100 µM
GI50 [44]: > 100 µM
TGI [44]: > 100 µM
GI50 [56]: > 100 µM
TGI [56]: > 100 µM
GI50 [45]: > 100 µM
TGI [45]: > 100 µM
GI50 [46]: > 100 µM
TGI [46]: > 100 µM
GI50 [47]: > 100 µM
TGI [47]: > 100 µM
GI50 [48]: > 100 µM
TGI [48]: > 100 µM
GI50 [49]: > 100 µM
TGI [49]: > 100 µM
GI50 [50]: > 100 µM
TGI [50]: > 100 µM
GI50 [51]: > 100 µM
TGI [51]: > 100 µM
GI50 [52]: > 100 µM
TGI [52]: > 100 µM
GI50 [53]: > 100 µM
TGI [53]: > 100 µM
GI50 [54]: > 100 µM
TGI [54]: > 100 µM

Nc1nn(CC(O)CO)c(=O)s1 (stereo unspecified)
TGI [1]: > 100 µM
TGI [2]: 9.86 µM
TGI [3]: > 100 µM
TGI [5]: > 100 µM
TGI [6]: > 100 µM
TGI [7]: > 100 µM
TGI [8]: > 100 µM
TGI [9]: > 100 µM
TGI [57]: > 100 µM
TGI [10]: > 100 µM
TGI [55]: > 100 µM
TGI [11]: > 100 µM
TGI [12]: > 100 µM
TGI [13]: > 100 µM
TGI [14]: > 100 µM
TGI [15]: > 100 µM
TGI [16]: > 100 µM
TGI [17]: > 100 µM
TGI [58]: > 100 µM
TGI [19]: > 100 µM
TGI [20]: > 100 µM
TGI [21]: > 100 µM
TGI [59]: > 100 µM
TGI [22]: > 100 µM
TGI [23]: > 100 µM
TGI [24]: > 100 µM
TGI [25]: > 100 µM
TGI [26]: > 100 µM
TGI [28]: > 100 µM
TGI [29]: > 100 µM
TGI [30]: > 100 µM
TGI [31]: > 100 µM
TGI [32]: > 100 µM
TGI [33]: > 100 µM
TGI [34]: > 100 µM
TGI [35]: > 100 µM
TGI [36]: > 100 µM
TGI [38]: > 100 µM
TGI [39]: > 100 µM
TGI [40]: > 100 µM
TGI [41]: > 100 µM
TGI [43]: > 100 µM
TGI [44]: > 100 µM
TGI [56]: > 100 µM
TGI [45]: > 100 µM
TGI [46]: > 100 µM
TGI [47]: > 100 µM
TGI [48]: > 100 µM
TGI [49]: > 100 µM
TGI [50]: > 100 µM
TGI [51]: > 100 µM
TGI [52]: > 100 µM
TGI [53]: > 100 µM
